Measured values from publication PMC12426935, “On-Cell Saturation Transfer Difference NMR Spectroscopy on Ion Channels: Characterizing Negative Allosteric Modulator Binding Interactions of P2X7” (Journal of the American Chemical Society, 2025).
Residue numbers refer to the chain shown, from its start. Where two headings read alike, the source gives them in different places.

Columns and labels:
[1] = biological target: T1, human P2X7 (WT hP2X7) (Homo sapiens, UniProt Q99572); assay: fura-2 intracellular calcium assay on HEK-293 stable cell line expressing human P2X7; type: cell-based
T1 sequence (Q99572 1-595): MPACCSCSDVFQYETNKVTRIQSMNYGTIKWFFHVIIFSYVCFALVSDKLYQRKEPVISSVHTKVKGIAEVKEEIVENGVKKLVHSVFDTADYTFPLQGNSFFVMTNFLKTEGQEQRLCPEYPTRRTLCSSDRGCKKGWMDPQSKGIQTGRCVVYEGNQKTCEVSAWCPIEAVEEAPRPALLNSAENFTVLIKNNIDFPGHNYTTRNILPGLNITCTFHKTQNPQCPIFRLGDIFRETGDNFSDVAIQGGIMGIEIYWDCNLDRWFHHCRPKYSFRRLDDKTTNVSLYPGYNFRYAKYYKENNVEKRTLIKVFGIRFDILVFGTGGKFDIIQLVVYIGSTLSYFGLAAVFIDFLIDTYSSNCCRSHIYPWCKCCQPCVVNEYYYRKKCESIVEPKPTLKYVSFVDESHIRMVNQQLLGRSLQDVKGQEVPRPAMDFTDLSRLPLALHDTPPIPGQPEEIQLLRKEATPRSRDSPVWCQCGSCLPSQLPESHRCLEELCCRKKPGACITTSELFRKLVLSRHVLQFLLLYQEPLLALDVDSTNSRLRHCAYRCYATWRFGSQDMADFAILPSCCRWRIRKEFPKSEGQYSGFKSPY
Method: (§1) Transfection was performed using lipofectamine 2000 (Fisher Scientific), and cells were subjected to Geneticin (800 μg/mL) selection for 2–3 weeks. This was followed by single cell cloning by limiting dilution in 96-well plates. Individual clones were selected for further study based on ATP-induced TO-PRO-3 uptake on a BD Cytoflex flow cytometer. Cell lines were maintained in DMEM:F12 media supplemented with 10% fetal bovine serum (PanBiotech), penicillin and streptomycin (Fisher Scientific) and kept in a humidified incubator with 5% CO2. Stable P2X7-expressing cells were kept under Geneticin selection at a concentration of 400 μg/mL. Passaging was performed twice weekly using 0.25% Trypsin-EDTA (Fisher Scientific).
P2X7 responses were measured by monitoring intracellular calcium responses using fura-2AM loaded cells. Cells were plated at 2–2.5 × 10^4 cells/well the day before experiments in 96-well plates (NUNC) coated with 50 μg/mL poly-D-lysine (Merck Millipore). […] Responses were measured using a Flexstation 3 plate reader (Molecular Devices) with dual excitation wavelengths of 340 and 380 nm and single emission wavelength of 510 nm. The sample interval was 3.5 s, and each well was recorded for 180 s. Fura-2 ratios were calculated in Softmax Pro v5.4; zero baseline was applied, and responses were measured as normalized area under the curve (AUC). Dose inhibition curves were plotted using GraphPad Prism v6 nonlinear regression (three parameter fit) and log IC50 values reported.

[2] = biological target: T2, F103A hP2X7 (Homo sapiens, UniProt Q99572, F103A); assay: fura-2 intracellular calcium assay on HEK-293 stable cell line expressing NAM-site mutant F103A hP2X7; type: cell-based; details: for IC50: n = 3
T2 sequence (Q99572 1-595 F103A): T1 sequence (Q99572 1-595) with F103A
Method: as §1
P2X7 responses were measured by monitoring intracellular calcium responses using fura-2AM loaded cells. Cells were plated at 2–2.5 × 10^4 cells/well the day before experiments in 96-well plates (NUNC) coated with 50 μg/mL poly-D-lysine (Merck Millipore). A loading buffer containing 2 μM fura-2AM (HelloBio) and 250 μM sulfinpyrazone (Merck Millipore) in a low divalent buffer (145 mM NaCl, 5 mM KCl, 0.2 mM CaCl2, 10 mM HEPES, 13 mM glucose, pH 7.3) was added to cells for 45 min at 37 °C. After loading, the buffer was removed and replaced with calcium-containing extracellular solution (145 mM NaCl, 5 mM KCl, 2 mM CaCl2, 10 mM HEPES, 13 mM glucose, pH 7.3). Responses were measured using a Flexstation 3 plate reader (Molecular Devices) with dual excitation wavelengths of 340 and 380 nm and single emission wavelength of 510 nm. The sample interval was 3.5 s, and each well was recorded for 180 s. Fura-2 ratios were calculated in Softmax Pro v5.4; zero baseline was applied, and responses were measured as normalized area under the curve (AUC). Dose inhibition curves were plotted using GraphPad Prism v6 nonlinear regression (three parameter fit) and log IC50 values reported.

Question: How did the IC50 [1] turn out when `O=C(NCC1(N2CCN(c3ccccc3)CC2)CCOCC1)c1cccnc1Sc1ccccc1` [JNJ-47965567] was run?
Answer: 0.026 µM

Question: And the IC50 ([1]; Human P2X7, species comparison (Table 1), log IC50 ± standard error, n = 3, read-out: Log IC50 (converted))?
Answer: 0.00912 µM

Question: And the IC50 ([1]; Human P2X7, species comparison (Table 1), mean in brackets, n = 3, read-out: mean IC50)?
Answer: 0.009 µM

Question: What about the IC50 ([1]; WT hP2X7, agonist ATP (Table 2), log IC50 ± standard error, n = 3, read-out: Log IC50 (converted)) of the same compound?
Answer: 0.0119 µM

Question: And the IC50 ([1]; WT hP2X7, agonist ATP (Table 2), mean in brackets, n = 3, read-out: mean IC50)?
Answer: 0.0117 µM

Question: And the IC50 ([2]; F103A hP2X7, agonist ATP, log IC50 ± standard error, read-out: Log IC50 (converted))?
Answer: 0.155 µM

Question: What about the IC50 ([2]; F103A hP2X7, agonist ATP, mean in brackets, read-out: mean IC50) of the same compound?
Answer: 0.161 µM

Question: And the IC50 ([2]; F103A hP2X7, agonist BzATP, mean in brackets, read-out: mean IC50)?
Answer: 0.0591 µM

Question: And the “loss in potency (increase in IC50) at F103A relative to WT hP2X7” value ([2]; F103A hP2X7 vs hP2X7)?
Answer: 10 fold
